Assay results from US12216125B2, “Method and kit for isotope-labelling of a glutathione-containing biological sample for mass spectrometry” (TECHNISCHE UNIVERSITÄT WIEN, priority 2018, dated 2025).

Test system: A549 lung carcinoma cells
Test: Oxidative stress induction in A549 cells, GSH/GSSG measured by LC-MS/MS
Type: cell-based, human
Details: 100 μmol/L H2O2 for 15 min
Experimental: Cell culture: A549 human lung carcinoma cells were obtained from CLS Cell Lines Service, Eppelheim, Germany, and were cultured in RPMI medium supplemented with 10% fetal bovine serum and 2 mmol/L glutamine in a 5% CO2, 37° C. incubator. For H2O2 treatment, cells were seeded in 12-well plates (300000 cells/well) and after a day in culture treated with 500 μl of control (Ca2+, Mg2+-PBS) or 100 μmol/L H2O2 in Ca2+, Mg2+-PBS for 15 min followed by two PBS washing steps and the NEM (2.5 mmol/L) incubation step. The detailed stabilisation workflow is illustrated in FIG. 1 and example 2.
Method overview: The method was tested and fully optimized for three different sample types: cells, blood and tissue. In clinical measurements available sample amount is often a limiting factor. The high sensitivity of the presented method enables analysis of scarce samples as minimal sample amounts are required. Typically, 5 μL of blood, 3-5 mg of tissue sample or 300.000 cells were used as starting material. […] All three analytes GSH-NEM, GSH-d5-NEM and ^13C, ^15N-GSH-d5-NEM (IS) were then simultaneously measured by LC-MS/MS using an MRM-based approach (FIG. 1, step 4), see also example 4.
Chromatography was carried out on a Dionex UltiMate 3000 system equipped with a Zorbax SB-C18 column (50 mm×4.6 mm, 1.8 μm, Agilent, USA). […] The sum of areas under both peaks was used for integration and quantification. […]

SMILES: OO [H2O2]
- GSH/GSSG ratio (GSSG measured as GSH-d5-NEM): drastically reduced
- intracellular GSH values (vs control PBS): depleted
